Data taken from patent US20050279350A1, “Methods and apparatus for relieving headaches, rhinitis and other common ailments” (priority 1999, published 2005).
“And” between values parts separate entries of the source, which are not always exact repeats. Equal values may be shown once. Read-outs that look alike come from different tables or passages of the source. Marks after values point to notes of the source that are not given here.

System: human subjects with migraine and tension-type headaches, jaw pain
Type: in vivo
Settings: for Est. Rate / Est. Total Dose / Number of Doses / Single Dose Duration / Total Dose / Total Treatment Time: self-selected effective dose; for 24-hr. Recur Rate / After Effects / Symptom Free, Minutes Post-Treatment / Symptom, Relief, Minutes Post-Treatment: moderate; for range of average dose duration / range of volume of gas: across severities
Excerpt: The test device was a hand-held, multi-dose, disposable, dispenser that was approximately 3 to 4 inches long and 6/8 to ⅞ inches in diameter constructed as described above. The device consisted of a plastic twist-top flow regulator mounted on top of a pressurized steel cartridge containing liquid carbon dioxide. The tip of the flow regulator has a nosepiece that is the optimal size and configuration to place against and seal off a nostril for administration of the gas. In a number of subjects, the effective nasal and oral carbon dioxide flow rates, and maximum tolerable nasal and oral flow rates, were measured using a laboratory apparatus. This apparatus consisted of a flow regulator connected via tubing to a flow meter and a large tank of carbon dioxide. These flow data were used, together with the number of seconds gas was administered during therapy, to calculate the estimated dose of gas in milliliters.
Of the total of 15 subjects included in the analysis, 11 used the treatment for 35 headaches and 9 subjects used it for 9 allergy attacks. […] subjects treated both headache and allergy but on different days. The subjects included adults, elderly, and children of both sexes in good general health, having mild, moderate, and severe headaches or having allergies to plant, animal, or airborne allergens. The device was used to treat migraine and tension-type headaches, jaw pain, and allergies (allergic rhinitis, with symptoms that included sinus congestion, sneezing, and itchy throat and eyes). There was no limitation on the duration of symptoms before treatment with the device. Subjects with no prior use of the device and those who have used it (to treat allergy symptoms) previously were included.
Carbon dioxide (100%) was administered nasally by the subject for a few seconds via a nostril to fill the nasal passages while holding their breath, or taking breaths of room air occasionally if the dose was lengthy. The gas exited the other nostril. Such nasal administration is similar to presently marketed nasal inhalers except that the administered gas was not inhaled. […] Subjects took as many doses as they needed for relief. It is important to note that there were no number of doses, duration of dose, time between doses, or gas flow rate specified for the user. Subjects chose their own regimen for symptom relief. Similarly, in medical practice today, gas therapy is a “titrate to effect” therapy without a specified dosage.
The International Headache Society (IHS) divides headache intensity into three categories: mild, moderate, and severe. The rating of the intensity level depends on the extent to which the headache interferes with the ability to function. […] The IHS uses headache relief at two hours as its primary outcome measure for present-day headache drug studies. Since therapy of the present invention acts much faster than present-day drugs, the primary outcome measure selected for this analysis was headache relief at 30 minutes. Each of the headache outcome measures used for this analysis is as follows: • Headache relief efficacy at 1, 5, 15, and 30 minutes post-treatment—headache relief efficacy is obtained when a pre-treatment headache severity of mild, moderate, or severe severity is improved to a post-treatment severity of none, mild, or moderate respectively. • Headache free efficacy at 1, 5, 15, and 30 minutes post-treatment—headache free efficacy is obtained when a pre-treatment headache of mild, moderate, or severe severity is improved to a post-treatment severity of none. • Headache recurrence within 24 hours post-treatment—recurrence within 24 hours is defined as no or mild headache severity after treatment that then worsened to moderate or severe headache severity within 24 hours after treatment with no use of rescue medication before the worsening. • Safety parameter—safety is defined as no adverse after-effects of treatment.

[1] = Headache-All, mild, severe, 1 min post-treatment
[2] = Headache-All, mild, severe, 5 min post-treatment
[3] = Headache-All, mild, severe, 15 min post-treatment
[4] = Headache-All, mild, severe, 30 min post-treatment
[5] = Headache-All, severe - IHS criteria
[6] = Headache-All, severe - IHS criteria, 1 min post-treatment
[7] = Headache-All, severe - IHS criteria, 5 min post-treatment
[8] = Headache-All, severe - IHS criteria, 15 min post-treatment
[9] = Headache-All, severe - IHS criteria, 30 min post-treatment
[10] = Migraine, mild, severe, 1 min post-treatment
[11] = Migraine, mild, severe, 5 min post-treatment
[12] = Migraine, mild, severe, 15 min post-treatment
[13] = Migraine, mild, severe, 30 min post-treatment
[14] = Migraine, severe - IHS criteria
[15] = Migraine, severe - IHS criteria, 1 min post-treatment
[16] = Migraine, severe - IHS criteria, 5 min post-treatment
[17] = Migraine, severe - IHS criteria, 15 min post-treatment
[18] = Migraine, severe - IHS criteria, 30 min post-treatment
[19] = Tension, mild, severe, 1 min post-treatment
[20] = Tension, mild, severe, 5 min post-treatment
[21] = Tension, mild, severe, 15 min post-treatment
[22] = Tension, mild, severe, 30 min post-treatment
[23] = Tension, severe - IHS criteria, 1 min post-treatment
[24] = Tension, severe - IHS criteria, 5 min post-treatment
[25] = Tension, severe - IHS criteria, 15 min post-treatment
[26] = Tension, severe - IHS criteria, 30 min post-treatment

## O=C=O [carbon dioxide]
35 headaches
  headache recurrence 24 hours post-treatment: no instances of headache recurrence
Headache-All
  Est. Rate: 4 mL/s
  Est. Total Dose: 124 mL
  Number of Doses: 2 #
  Single Dose Duration: 15 s
  Total Dose: 32 s
  Total Treatment Time: 7 min
Headache-All, mild, severe
  24-hr. Recur Rate: 0%
  After Effects: 0%
[1]
  Symptom Free, Minutes Post-Treatment: 31%
  Symptom, Relief, Minutes Post-Treatment: 31%
[2]
  Symptom Free, Minutes Post-Treatment: 60%
  Symptom, Relief, Minutes Post-Treatment: 63%
[3]
  Symptom Free, Minutes Post-Treatment: 74%
  Symptom, Relief, Minutes Post-Treatment: 86%
[4]
  Symptom Free, Minutes Post-Treatment: 80%
  Symptom, Relief, Minutes Post-Treatment: 94%
[5]
  24-hr. Recur Rate: 0%
  After Effects: 0%
[6]
  Symptom Free, Minutes Post-Treatment: 16%
  Symptom, Relief, Minutes Post-Treatment: 16%
[7]
  Symptom Free, Minutes Post-Treatment: 52%
  Symptom, Relief, Minutes Post-Treatment: 52%
[8]
  Symptom Free, Minutes Post-Treatment: 72%
  Symptom, Relief, Minutes Post-Treatment: 72%
[9]
  Symptom Free, Minutes Post-Treatment: 80%
  Symptom, Relief, Minutes Post-Treatment: 84%
Migraine-All
  Est. Rate: 3 mL/s
  Est. Total Dose: 158 mL
  Number of Doses: 2 #
  Single Dose Duration: 29 s
  Total Dose: 57 s
  Total Treatment Time: 15 min
Migraine-Mild
  Est. Rate: 3 mL/s
  Est. Total Dose: 82 mL
  Number of Doses: 1 #
  Single Dose Duration: 23 s
  Total Dose: 30 s
  Total Treatment Time: 1 min
Migraine-Severe
  Est. Rate: 3 mL/s
  Est. Total Dose: 233 mL
  Number of Doses: 2 #
  Single Dose Duration: 35 s
  Total Dose: 83 s
  Total Treatment Time: 28 min
Migraine, mild, severe
  24-hr. Recur Rate: 0%
  After Effects: 0%
[10]
  Symptom Free, Minutes Post-Treatment: 60%
  Symptom, Relief, Minutes Post-Treatment: 60%
[11]
  Symptom Free, Minutes Post-Treatment: 60%
  Symptom, Relief, Minutes Post-Treatment: 60%
[12]
  Symptom Free, Minutes Post-Treatment: 60%
  Symptom, Relief, Minutes Post-Treatment: 60%
[13]
  Symptom Free, Minutes Post-Treatment: 90%
  Symptom, Relief, Minutes Post-Treatment: 90%
[14]
  24-hr. Recur Rate: 0%
  After Effects: 0%
[15]
  Symptom Free, Minutes Post-Treatment: 25%
  Symptom, Relief, Minutes Post-Treatment: 25%
[16]
  Symptom Free, Minutes Post-Treatment: 25%
  Symptom, Relief, Minutes Post-Treatment: 25%
[17]
  Symptom Free, Minutes Post-Treatment: 25%
  Symptom, Relief, Minutes Post-Treatment: 25%
[18]
  Symptom Free, Minutes Post-Treatment: 75%
  Symptom, Relief, Minutes Post-Treatment: 100%
Tension-All
  Est. Rate: 4 mL/s
  Est. Total Dose: 122 mL
  Number of Doses: 3 #
  Single Dose Duration: 8 s
  Total Dose: 24 s
  Total Treatment Time: 6 min
Tension-Mild
  Est. Rate: 3 mL/s
  Est. Total Dose: 28 mL
  Number of Doses: 2 #
  Single Dose Duration: 3 s
  Total Dose: 6 s
  Total Treatment Time: 2 min
Tension-Moderate
  Est. Rate: 4 mL/s
  Est. Total Dose: 50 mL
  Number of Doses: 2 #
  Single Dose Duration: 6 s
  Total Dose: 11 s
  Total Treatment Time: 4 min
Tension-Severe
  Est. Rate: 5 mL/s
  Est. Total Dose: 288 mL
  Number of Doses: 4 #
  Single Dose Duration: 15 s
  Total Dose: 56 s
  Total Treatment Time: 11 min
Tension, mild, severe
  24-hr. Recur Rate: 0%
  After Effects: 0%
[19]
  Symptom Free, Minutes Post-Treatment: 20%
  Symptom, Relief, Minutes Post-Treatment: 20%
[20]
  Symptom Free, Minutes Post-Treatment: 64%
  Symptom, Relief, Minutes Post-Treatment: 64%
[21]
  Symptom Free, Minutes Post-Treatment: 80%
  Symptom, Relief, Minutes Post-Treatment: 96%
[22]
  Symptom Free, Minutes Post-Treatment: 80%
  Symptom, Relief, Minutes Post-Treatment: 96%
Tension, severe - IHS criteria
  24-hr. Recur Rate: 0%
  After Effects: 0%
[23]
  Symptom Free, Minutes Post-Treatment: 14%
  Symptom, Relief, Minutes Post-Treatment: 14%
[24]
  Symptom Free, Minutes Post-Treatment: 55%
  Symptom, Relief, Minutes Post-Treatment: 55%
[25]
  Symptom Free, Minutes Post-Treatment: 77%
  Symptom, Relief, Minutes Post-Treatment: 77%
[26]
  Symptom Free, Minutes Post-Treatment: 80% and 77%
  Symptom, Relief, Minutes Post-Treatment: 77%
All subsequent mild and severe migraines, two to three doses for 25 sec each=120 ml
  headache outcome in an individual subject: completely eliminate
Analysis of the headache and allergy therapy data (Table IV)
  dose dependence of the treatment: dose dependent
At onset of a migraine, doses twice for 20 to 25 seconds
  headache outcome in an individual subject: completely aborts the migraine and it does not recur
Headache subjects
  adverse after effects of treatment: no subjects reported any adverse after effects
headache, while administering the first dose
  onset of symptom relief: immediate onset of symptom relief within seconds
Migraine and tension-type headache, occurring in seconds to minutes
  efficacy: 80-94%
Migraine headaches
  range of average dose duration: 30 to 83 s
  range of volume of gas: 82 to 233 mL
Mild migraine, first use of device, one dose for 30 sec=60 ml
  headache outcome in an individual subject: unable to improve
Moderate tension headache, one dose of 1 sec=2 ml
  headache outcome in an individual subject: no success
Severe jaw/tooth ache, three doses of 45 sec each=675 ml
  headache outcome in an individual subject: completely eliminate
Severe tension headache, three doses of 15 sec each=225 ml
  headache outcome in an individual subject: completely eliminate
Severe tension headaches, three occasions, six doses of 8 sec each=240 ml
  headache outcome in an individual subject: only moderate success
tension-type headaches
  range of average dose duration: 6 to 56 s
  range of volume of gas: 28 to 288 mL
